Measurements published in paper PMC5449093, “Selective inhibitors of trypanosomal uridylyl transferase RET1 establish druggability of RNA post-transcriptional modifications” (RNA Biology, 2016).

What was measured:
[1] = molecular target: T1, RET1 (Trypanosoma brucei brucei, UniProt Q8WQX5, A749G/DEL18-18/G858D/N24H/V111I/W59S); experiment: Gel based assay for RET1 uridylylation activity (Sybr Gold); format: biochemical; settings: for Inhibition of RET1 uridylation of RNA, gel verification: inhibitor 50 µM, Fig. 3; for Gel Assay (qualitative activity in gel based assay): qualitative class: inactive, moderate or strong inhibitor, inhibitor 50 µM per method
T1 construct: Full-length RET1 protein (975aa) was expressed in E. coli as an N-terminal GST-tagged fusion protein; made in house; host or cells: E. coli BL21 (DE3)
Protocol: Individual reactions were made up in 0.2 ml PCR tubes (Peqlab 820264-A). RET1 enzyme (see SI text) was added (0.05 μl, 0.2 mg ml^−1), UTP (Thermo Scientific R0471 100 mM) was added to a final concentration of 50 μM. RNA substrate (see SI text) was added to a final concentration of 200 nM. Inhibitors were added as required (0.5 μl in DMSO) to a final concentration of 50 μM. When no inhibitor was included 5 % (vol/vol) DMSO was added as control. The volume was made up to 10 μl in buffer D (Tris pH 7.5 10 mM, KCl 200 mM, DTT 1 mM, EDTA 0.5 mM MgCl2 3.2 mM) and the reaction was incubated for 20 mins at 27°C, then inactivated at 65°C for 10 mins. RNA loading dye (10 μl, NEB B363A) was added and tubes were heated (5 mins at 70°C), 10 μl was loaded onto 15 % TBE urea pre-cast gel (Invitrogen EC68852) and run in 1 x TBE buffer for 1.5 h at 130 V. Gels were incubated with Sybr Gold nucleic acid stain (Life Technologies S11494) for 20 mins, then imaged on an ultraviolet trans-illuminator (BioDoc-It imaging system, UVP). Experiments were carried out in duplicate for each inhibitor.

[2] = molecular target: T1, RET1; experiment: Luciferase coupled PPi assay, 384 well format, RET1; format: biochemical
Protocol: Reactions were made up in Corning® 384 Well Low Flange White Flat Bottom Polystyrene TC-Treated Micro plates (Product #3570). RET1 enzyme was added at 0.1 μl (0.2 mgml^−1), UTP (Thermo Scientific R0471 100 mM) and RNA substrate final concentrations were equal to their Km: 50 μM and 20 nM respectively.[18] The volume was made up to 10 μl with buffer 6 (Tris pH 7.5 10 mM, KCl 10 mM, DTT 1 mM, MgCl2 3.2 mM) and the reaction was incubated 20 mins at 25°C, then heat inactivated at 65°C for 10 mins. Test compounds were added in 0.5 μl of DMSO stock solution. The positive control included of 0.5 μl of DMSO. After a 10 min cooling period, 5 μl of each of detection and conversion reagents from PPiLight™ Inorganic Pyrophosphate Assay Kit (Lonza, LT07-610) were added. Luminescence was read with a Pherastar Plus micro plate reader. IC50 determinations were carried out in triplicate using the luciferase assay protocol in a dilution series of 1 mM to 99 nM.

[3] = molecular target: T2, CID1 poly (U) polymerase (Schizosaccharomyces pombe, UniProt O13833); experiment: biochemical
T2 construct: purchased NEB M0337S
Protocol: (§1) Poly (U) polymerase from Schizosaccharomyces pombe, was obtained from NEB (M0337S). […]
(§2) Duplicate reactions were set up with each containing, 0.2 units of Cid1 enzyme, NEB (M0337S) with UTP at final concentration of 18 µM, RNA 3 nM, and buffer 6 up to a final volume of 10 µl. The reaction was done at 37°C for 20 mins, then the enzyme heat inactivated at 65 °C for 10 mins.

[4] = system: CID1 poly (U) polymerase; experiment: biochemical; design: species or system Schizosaccharomyces pombe; settings: RET1 over CID1, calculated from IC50 values
Protocol: as §1, §2

[5] = system: T. brucei; experiment: Treating T. brucei cultures with compounds, cell density counts; format: cell-based, Trypanosoma brucei; settings: blood and insect forms; concentrations close to RET1 IC50 values (70μM and 2μM); Fig. S4
Protocol: Wild type blood form strain of trypanosomes were cultured to densities of 5 × 10^5 cells ml^−1 at 37 °C in HMI-9 medium, 1 % pen/strep, 10 % FCS, Puromycin 0.1 ug ml^−1 , zeocin 1 µg ml^−1. Test compounds in DMSO were added at varying concentrations (DMSO final concentration 1 %). The trypanosomes where then split 1/10 dilution and sub-cultured every 24 h to the same cell density (5 × 10^5 cells ml^−1). At 24 hour intervals, cell density measurements were performed using a hem cytometer. Test concentrations were determined by an initial dose finding experiment and compounds were tested at 0.2, 0.5 and 1 times a fatal dose. This was in the region of the IC50 for both compounds.

[6] = system: PC12 cells; design: method as in PMID 9256496; settings: concentrations of 10 μM; cited from earlier work
[7] = RET1 IC50, PPi assay 384-well follow-up, UTP 50 µM, RNA 20 nM
[8] = RET1 Inhibition IC50, selectivity experiment, Table 2

Row | Compound | Inhibition of RET1 uridylation of RNA, gel verification [1] | Gel Assay (qualitative activity in gel based assay) [1] | IC50 [2, 7] [µM] | IC50 [2, 8] [µM] | IC50 [3] [µM] | RET1 Selectivity (fold) [4] [fold] | Toxicity to trypanosomes in culture [5] | Toxicity to PC12 cells [6]
1 | O=C(Nc1ccc(S(=O)(=O)N2CCOCC2)cc1)c1cc(Cl)ccc1NS(=O)(=O)c1ccc(Cl)s1 [Compound 1, Ataciguat] | effectively inhibit | Strong | 70 | 73 | 4800 | 66 | toxic to both blood and insect forms | 
2 | O=C(c1cc(O)c(O)c(O)c1)c1ccc(O)c(O)c1O [Compound 2, exifone] | effectively inhibit | Strong | 2 | 2 | 88 | 43 | toxic to both blood and insect forms | not toxic
